Holding throughout (assay type): biochemical
For one experiment, the target named is T1, CDK7/CyclinH/MAT1 (Homo sapiens, UniProt P50613).
T1 construct: purchased Millipore 14-476M
Description: CDK7/CyclinH/MAT1 kinase inhibitory activity (Caliper mobility shift). To be noted: enzyme 12.5 nM, ATP 70 μM, 28° C. 30 min; read-out: CDK7/Cyclin H/MAT1 IC50. The method, then:
CDK7/CyclinH/MAT1 kinase inhibitory activity (IC50): 5 μl of various dilutions of test compound in 1× kinase buffer (20 mM HEPES, pH 7.5, 10 mM MgCl2, 2 mM DTT and 0.01% Triton X-100) was mixed with 10 μL of CDK7/CyclinH/MAT1 (Millipore, 14-476M #, final concentration 12.5 nM in 1× Kinase buffer) in 384 plates and incubated at room temperature for 10 min. To initiate each reaction, 10 μL of peptide solution containing fluorescently-labeled-peptide CTD3 (5-FAM-[…], GL, SY346885 #, final concentration 3000 nM) and ATP (final concentration 70 μM) in 1× Kinase buffer was added to each of the wells containing test compound and CDK7/CyclinH/MAT1 mixture. The reaction is then allowed to proceed at 28° C. for 30 min and terminated by the addition of 25 μL stop buffer (100 mM HEPES pH 7.5, 50 mM EDTA, 0.2% Coating Reagent #3 (Perkin Elmer, 760050 #) and 0.015% Brij-35).
(§1) Following the kinase reaction, Caliper EZ reader II (Downstream voltages: −500V, Upstream voltages: −2250V, Base pressure −0.5 PSI, Screen pressure −1.2 PSI) was used to separate the phosphoiylated (product) and the unphosphorylated (substrate) fluorescently-labeled peptide CTD3 based on their different mobility. Both substrate and product were measured and the ratio of these values were used to generate % conversion by Caliper EZ reader II. These conversion values were then transformed into % inhibition of kinase activity using the formula: % Inhibition=[(MA−X)/(MA−MI)]×100% where MA=conversion value of DMSO only controls, MI=conversion value of no enzyme controls and X=conversion value at any given compound dose. IC50 values were then calculated by plotting dose-response curves and then using the XLfit application in Excel software.

For another experiment, the target named is T2, CDK1/CyclinB (Homo sapiens, UniProt P06493).
T2 construct: purchased Millipore 14-450M
Description: CDK1/CyclinB kinase inhibitory activity (Caliper mobility shift). To be noted: enzyme 3 nM, ATP 20 μM, 28° C. 30 min; read-out: CDK1/Cyclin B1 IC50. Here is the method:
CDK1/CyclinB kinase inhibitory activity (IC50): 5 μl of various dilutions of test compound in 1× kinase buffer (50 mM HEPES pH 7.5, 10 mM MgCl2, 2 mM DTT and 0.01% Brij-35) was mixed with 10 μL of CDK1/CyclinB (Millipore, 14-450M #, final concentration 3 nM in 1× Kinase buffer) in 384 plates and incubated at room temperature for 10 min. To initiate each reaction, 10 μL of peptide solution containing fluorescently-labeled-peptide 18(5-FAM-QSPKKG-CONH2) (GL, 114202 #, final concentration 3000 nM) and ATP (final concentration 20 μM) in 1× Kinase buffer was added to each of the wells containing test compound and CDK1/CyclinB mixture. The reaction is then allowed to proceed at 28° C. for 30 min and terminated by the addition of 25 μL stop buffer (100 mM HEPES pH 7.5, 50 mM EDTA, 0.2% Coating Reagent #3 (Perkin Elmer, 760050 #) and 0.015% Brij-35).
as §1, with “phosphorylated” for “phosphoiylated”, “18” for “CTD3”

In another experiment the target is T3, CDK6/CyclinD3 (Homo sapiens, UniProt Q00534).
T3 construct: purchased Carna 04-107
Description: CDK6/CyclinD3 kinase inhibitory activity (Caliper mobility shift). To be noted: enzyme 15 nM, ATP 800 μM, 28° C. 30 min; read-out: CDK6/Cyclin D3 IC50. The method in brief:
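Compound preincubated 10 min at room temperature with CDK6/CyclinD3 (15 nM final) in HEPES pH 7.5/MgCl2/DTT buffer; reaction with 5-FAM peptide (3000 nM) and ATP 800 μM, 30 min at 28°C, stopped with EDTA. Substrate/product separated by microfluidic mobility shift; % conversion converted to % inhibition, IC50 from dose-response curves.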

IC50 data for 17 molecules are collected here from patent US20260242395A1, “AMINOHETEROARYL KINASE INHIBITORS” (ALLORION THERAPEUTICS INC, priority 2022, published 2026).

T2 sequence (P06493 whole entry): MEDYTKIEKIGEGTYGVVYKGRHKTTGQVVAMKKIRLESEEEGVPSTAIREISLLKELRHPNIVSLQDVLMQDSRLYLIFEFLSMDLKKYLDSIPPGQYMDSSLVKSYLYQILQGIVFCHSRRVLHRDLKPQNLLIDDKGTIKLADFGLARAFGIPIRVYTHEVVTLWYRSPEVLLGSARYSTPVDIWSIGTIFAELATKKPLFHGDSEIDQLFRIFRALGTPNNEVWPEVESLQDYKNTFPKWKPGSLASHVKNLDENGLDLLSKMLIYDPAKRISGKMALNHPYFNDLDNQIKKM
T2 sequence (P14635 whole entry partner): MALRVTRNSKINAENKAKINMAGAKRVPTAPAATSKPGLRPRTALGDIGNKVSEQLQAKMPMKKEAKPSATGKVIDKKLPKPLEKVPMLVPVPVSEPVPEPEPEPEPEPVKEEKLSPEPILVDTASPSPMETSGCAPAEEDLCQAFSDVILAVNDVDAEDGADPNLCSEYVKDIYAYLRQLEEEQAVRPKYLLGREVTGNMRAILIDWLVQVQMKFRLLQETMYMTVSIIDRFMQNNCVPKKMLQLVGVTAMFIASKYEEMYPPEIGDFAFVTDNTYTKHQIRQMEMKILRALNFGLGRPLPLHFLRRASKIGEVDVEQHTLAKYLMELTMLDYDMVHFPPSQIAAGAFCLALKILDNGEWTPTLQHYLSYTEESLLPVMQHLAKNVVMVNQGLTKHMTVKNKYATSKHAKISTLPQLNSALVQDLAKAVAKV
T1 sequence (P50613 whole entry): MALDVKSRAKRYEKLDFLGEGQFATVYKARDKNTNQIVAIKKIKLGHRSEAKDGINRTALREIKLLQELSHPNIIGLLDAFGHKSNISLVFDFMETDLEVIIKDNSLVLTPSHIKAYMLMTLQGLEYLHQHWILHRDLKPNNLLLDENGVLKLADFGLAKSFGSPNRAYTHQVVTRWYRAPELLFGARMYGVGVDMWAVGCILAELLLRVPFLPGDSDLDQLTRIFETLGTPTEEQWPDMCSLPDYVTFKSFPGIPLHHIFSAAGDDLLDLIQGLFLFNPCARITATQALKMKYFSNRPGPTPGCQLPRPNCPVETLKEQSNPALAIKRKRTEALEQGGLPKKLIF
T1 sequence (P51946 whole entry partner): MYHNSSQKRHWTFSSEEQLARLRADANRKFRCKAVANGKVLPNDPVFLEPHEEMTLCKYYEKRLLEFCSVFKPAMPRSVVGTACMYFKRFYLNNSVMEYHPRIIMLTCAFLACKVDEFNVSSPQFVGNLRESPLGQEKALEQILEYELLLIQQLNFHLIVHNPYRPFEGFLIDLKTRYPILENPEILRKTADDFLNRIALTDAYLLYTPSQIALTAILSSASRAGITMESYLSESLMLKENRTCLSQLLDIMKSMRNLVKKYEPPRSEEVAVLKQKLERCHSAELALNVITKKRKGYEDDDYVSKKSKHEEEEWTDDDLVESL
T1 sequence (P51948 whole entry partner): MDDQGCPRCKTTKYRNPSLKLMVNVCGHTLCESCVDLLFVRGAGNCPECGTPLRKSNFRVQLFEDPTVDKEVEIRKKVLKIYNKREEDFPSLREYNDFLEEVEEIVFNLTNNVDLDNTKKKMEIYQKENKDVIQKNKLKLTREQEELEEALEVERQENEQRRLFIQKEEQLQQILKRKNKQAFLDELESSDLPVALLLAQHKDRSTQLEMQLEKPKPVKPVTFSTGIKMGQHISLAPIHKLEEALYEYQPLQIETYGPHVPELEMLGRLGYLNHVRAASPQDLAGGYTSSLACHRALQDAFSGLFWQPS
T3 sequence (Q00534 whole entry): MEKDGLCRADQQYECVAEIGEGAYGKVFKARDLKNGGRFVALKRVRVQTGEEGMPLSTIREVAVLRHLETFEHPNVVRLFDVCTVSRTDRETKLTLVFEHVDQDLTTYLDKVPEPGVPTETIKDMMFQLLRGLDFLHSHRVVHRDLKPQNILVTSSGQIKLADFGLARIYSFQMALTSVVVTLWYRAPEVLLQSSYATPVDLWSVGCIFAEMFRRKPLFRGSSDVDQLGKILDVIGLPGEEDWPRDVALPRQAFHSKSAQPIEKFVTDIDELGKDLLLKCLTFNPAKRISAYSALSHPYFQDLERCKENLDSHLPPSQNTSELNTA
T3 sequence (P30281 whole entry partner): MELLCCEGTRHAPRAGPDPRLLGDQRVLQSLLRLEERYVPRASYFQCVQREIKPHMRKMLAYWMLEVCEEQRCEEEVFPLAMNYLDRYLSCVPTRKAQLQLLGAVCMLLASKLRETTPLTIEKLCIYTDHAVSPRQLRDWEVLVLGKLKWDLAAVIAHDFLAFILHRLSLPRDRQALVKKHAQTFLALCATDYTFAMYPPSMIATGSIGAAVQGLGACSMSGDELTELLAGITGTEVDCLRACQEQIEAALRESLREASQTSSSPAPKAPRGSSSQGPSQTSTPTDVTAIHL

`Cc1nc2c(F)cc(-c3nc(N[C@@H]4CCOC[C@H]4O)ncc3Cl)cc2c(C)c1[C@@H](C)O` (single isomer, unassigned) [Example 15a]: the results for the IC50 at CDK7/CyclinH/MAT1, on CDK1/CyclinB and on CDK6/CyclinD3 were at least 1000 nM, 100 to 1000 nM and 10 to 100 nM, respectively.
The matching figures for `[2H]c1nc2c(F)cc(-c3nc(N[C@@H]4CCOC[C@H]4O)ncc3Cl)cc2c2c1CC(C)(C)NC2` [Example 100]: 100 to 1000 nM, 100 to 1000 nM and 10 to 100 nM.
The matching figures for `CC(C)(N)c1cnc2ccc(-c3nc(N[C@@H]4CCOC[C@H]4O)ncc3Cl)cc2c1` [Example 26]: at least 1000 nM, 100 to 1000 nM and at least 1000 nM.
The matching figures for `O[C@@H]1COCC[C@H]1Nc1ncc(Cl)c(-c2cc(F)c3c(c2)N2CCNC[C@@H]2CO3)n1` [Example 19, (3S,4R)-4-((5-chloro-4-((R)-7-fluoro-1,2,3,4,4a,5-hexahydrobenzo[b]pyrazino[1,2-d][1,4]oxazin-9-yl)pyrimidin-2-yl)amino)tetrahydro-2H-pyran-3-ol]: 10 to 100 nM, 10 to 100 nM and 10 to 100 nM.
As for `Cc1nc2c(F)cc(-c3nc(N[C@@H]4CCOC[C@H]4O)ncc3Cl)cc2c2c1CCN(C)C2` [Example 37], the IC50 at CDK7/CyclinH/MAT1 was at least 1000 nM; on CDK1/CyclinB, at least 1000 nM; at CDK6/CyclinD3, 100 to 1000 nM.
`Cc1nc2c(F)cc(-c3nc(N[C@@H]4CCOC[C@H]4O)ncc3F)cc2c(C)c1C(C)O` (single isomer, unassigned) [Example 81a]: the IC50 at CDK7/CyclinH/MAT1 is 100 to 1000 nM; at CDK1/CyclinB, 100 to 1000 nM; on CDK6/CyclinD3, 10 to 100 nM.
Regarding `[2H]C([2H])([2H])C(O)(c1cc2cc(-c3nc(N[C@@H]4CCOC[C@H]4O)ncc3Cl)cc(F)c2nc1C)C([2H])([2H])[2H]` [Example 60, (3S,4R)-4-((5-chloro-4-(8-fluoro-3-(2-hydroxypropan-2-yl-1,1,1,3,3,3-d6)-2-methylquinolin-6-yl)pyrimidin-2-yl)amino)tetrahydro-2H-pyran-3-ol], the IC50 on CDK7/CyclinH/MAT1 is at least 1000 nM; at CDK1/CyclinB, at least 1000 nM; on CDK6/CyclinD3 it was 100 to 1000 nM.
As for `CNC(C)c1cc2cc(-c3nc(N[C@@H]4CCOC[C@H]4O)ncc3Cl)cc(F)c2nc1C` (single isomer, unassigned) [Example 45b], the IC50 is at least 1000 nM at CDK7/CyclinH/MAT1, at least 1000 nM at CDK1/CyclinB and 100 to 1000 nM at CDK6/CyclinD3.
On to `O[C@@H]1COCC[C@H]1Nc1ncc(F)c(-c2cc(F)c3ncc4c(c3c2)CNC2(CC2)C4)n1` [Example 56], for which the results for the IC50 on CDK7/CyclinH/MAT1, on CDK1/CyclinB and at CDK6/CyclinD3 were 10 to 100 nM, 10 to 100 nM and 100 to 1000 nM, respectively.
`CC(C)(O)c1cnc2c(F)cc(-c3nc(N[C@@H]4CCOC[C@H]4O)ncc3Cl)cc2c1` [Example 1, (3S,4R)-4-((5-chloro-4-(8-fluoro-3-(2-hydroxypropan-2-yl)quinolin-6-yl)pyrimidin-2-yl)amino)tetrahydro-2H-pyran-3-ol]: the IC50 was at least 1000 nM at CDK7/CyclinH/MAT1, at least 1000 nM at CDK1/CyclinB and 100 to 1000 nM on CDK6/CyclinD3.
As to `CC1(C)Cc2cnc3c(F)cc(-c4nc(N[C@@H]5CCOC[C@H]5O)ncc4Cl)cc3c2CN1` [Example 30], the IC50 on CDK7/CyclinH/MAT1 is at least 1000 nM; on CDK1/CyclinB, 100 to 1000 nM; at CDK6/CyclinD3 it was 10 to 100 nM.
The matching figures for `Cc1c(C(C)(C)O)cnc2c(C)cc(-c3nc(N[C@@H]4CCOC[C@H]4O)ncc3Cl)cc12` [Example 58]: at least 1000 nM, at least 1000 nM and 100 to 1000 nM.
With `[2H]c1nc2c(F)cc(-c3nc(N[C@@H]4CCOC[C@H]4O)ncc3C)cc2c2c1CC1(CC1)NC2` [Example 67], the IC50 at CDK7/CyclinH/MAT1, at CDK1/CyclinB and at CDK6/CyclinD3 was at least 1000 nM each time.
Regarding `CC1(C)Cc2cnc3c(F)cc(-c4ccnc(N[C@@H]5CCOC[C@H]5O)n4)cc3c2CN1` [Example 107], the IC50 on CDK7/CyclinH/MAT1, at CDK1/CyclinB and at CDK6/CyclinD3 was 100 to 1000 nM in each case.
Turning to `O[C@@H]1COCC[C@H]1Nc1ncc(Cl)c(-c2cc(F)c3ncc4c(c3c2)CCNC4)n1` [Example 8, (3S,4R)-4-((5-chloro-4-(7-fluoro-1,2,3,4-tetrahydrobenzo[c][2,7]naphthyridin-9-yl)pyrimidin-2-yl)amino)tetrahydro-2H-pyran-3-ol], the IC50 at CDK7/CyclinH/MAT1, on CDK1/CyclinB and on CDK6/CyclinD3 was 10 to 100 nM in each case.
With `CC1(C)Cc2cnc3c(F)cc(-c4nc(N[C@@H]5CCOC[C@H]5O)ncc4F)cc3c2CN1` [Example 24, (3S,4R)-4-((5-fluoro-4-(7-fluoro-3,3-dimethyl-1,2,3,4-tetrahydrobenzo[c][2,6]naphthyridin-9-yl)pyrimidin-2-yl)amino)tetrahydro-2H-pyran-3-ol], the values for the IC50 on CDK7/CyclinH/MAT1, on CDK1/CyclinB and on CDK6/CyclinD3 were 100 to 1000 nM, 100 to 1000 nM and 10 to 100 nM, respectively.
Regarding `CC1(C)Cc2cnc3c(F)cc(-c4nc(N[C@@H]5CCOC[C@H]5O)ncc4C#N)cc3c2CN1` [Example 49], the values for the IC50 on CDK7/CyclinH/MAT1, on CDK1/CyclinB and at CDK6/CyclinD3 were at least 1000 nM, at least 1000 nM and 100 to 1000 nM, respectively.
